Laboratory results: US20250195530A1, “POLQ INHIBITORS” (ASTRAZENECA AB, priority 2022, published 2025)
Where two headings read alike, the source gives them in different places.

Key:
[1] = system: DLD-1 cells; experiment: Inhibition of proliferation, DLD-1 BRCA2 wt control (Cell Titre Glo 3D); assay type: cell-based; details: for IC50: Homo sapiens
Procedure, shortened: (§1)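 Proliferation of HR-deficient DLD-1 BRCA2−/− versus isogenic wild-type DLD-1 was measured by ATP luminescence (CellTiter-Glo 3D). Compound exposure lasted 12 or 7 days, respectively, with a fresh dose on day 6. IC50 was the concentration halving maximal signal.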

[2] = system: DLD-1 BRCA2−/− cells; experiment: Homologous recombination synthetic lethal inhibition of proliferation, DLD-1 BRCA2-/- (Cell Titre Glo 3D); assay type: cell-based; details: for IC50: Homo sapiens
Procedure, shortened: as §1

[3] = DLD-1, second proliferation column (c6), taken as DLD-1 BRCA2 wt, read-out: POLQ PD Prolif Lumin (converted)
[4] = DLD-1, first proliferation column (c5), taken as DLD-1 BRCA2-/-, read-out: POLQ PD Prolif Lumin (converted)
[5] = DLD-1, 168 h, DLD-1 (BRCA2 wt control), 7 days, Cell Titre Glo 3D, read-out: POLQ PD Prolif Lumin DLD1 Mean pIC50 (converted)
[6] = DLD-1, 288 h, DLD-1 BRCA2−/−, 12 days, Cell Titre Glo 3D, read-out: POLQ PD Prolif Lumin BRCA2 −/− Mean pIC50 (converted)
[7] = DLD-1, 168 h, DLD-1 BRCA2 wt cells, 7 days, read-out: POLQ PD Prolif Lumin DLD1 mean pIC50 (converted)
[8] = DLD-1, 288 h, DLD-1 BRCA2−/− cells, 12 days, read-out: POLQ PD Prolif Lumin BRCA2 −/− mean pIC50 (converted)

| IC50 [1, 7] | Compound | IC50 [2, 8] | other results |
| --- | --- | --- | --- |
|  | CC(COc1ccc(-c2nc3c(OC4(C)CC4)ncnc3n2Cc2cccc(Cl)c2)c(Cl)c1)CC(=O)O (single isomer, unassigned) [Example T294, 4-(3-chloro-4-(9-(3-chlorobenzyl)-6-(1-methylcyclopropoxy)-9H-purin-8-yl)phenoxy)-3-methylbutanoic acid] |  | IC50 ([1]; DLD-1, DLD-1 BRCA2 wt control proliferation, column head only partly shown, read-out: POLQ PD Prolif Lumin (converted)): > 10000 nM; IC50 ([2]; DLD-1, DLD-1 BRCA2-/- proliferation, column head only partly shown, read-out: POLQ PD Prolif Lumin (converted)): 158 nM |
|  | CC(COc1ccc(-c2nc3c(OC4(C)CC4)ncnc3n2Cc2cccc(Cl)c2)c(Cl)c1)CC(=O)O (single isomer, unassigned) [Example T295, 4-(3-chloro-4-(9-(3-chlorobenzyl)-6-(1-methylcyclopropoxy)-9H-purin-8-yl)phenoxy)-3-methylbutanoic acid] |  | POLQ PD Prolif Lumin ([1]; DLD-1 BRCA2 wt control proliferation, column head only partly shown): <5.0; POLQ PD Prolif Lumin ([2]; DLD-1 BRCA2-/- proliferation, column head only partly shown): 6.9 |
|  | CC(COc1cccc(-c2nc3c(OC4(C)CC4)ncnc3n2Cc2cccc(Cl)c2)c1Cl)CC(=O)O (single isomer, unassigned) [Example T299, 4-(2-chloro-3-(9-(3-chlorobenzyl)-6-(1-methylcyclopropoxy)-9H-purin-8-yl)phenoxy)-3-methylbutanoic acid] |  | IC50 [1, 3]: > 10000 nM; IC50 [2, 4]: 79.4 nM |
|  | Cc1cnc(Cn2c(-c3ccc(OC4CCCN(C)CC4)cc3Cl)nc3c(OC4(C)CC4)ncnc32)s1 (single isomer, unassigned) [Example T389, 2-((8-(2-chloro-4-((1-methylazepan-4-yl)oxy)phenyl)-6-(1-methylcyclopropoxy)-9H-purin-9-yl)methyl)-5-methylthiazole] |  | IC50 [1, 3]: > 10000 nM; IC50 [2, 4]: 316 nM |
|  | COc1ccc(F)cc1Cn1c(-c2cccc(OCC(C)CC(=O)O)c2Cl)nc2c(OC3(C)CC3)ncnc21 (single isomer, unassigned) [Example U77, 4-(2-chloro-3-(9-(5-fluoro-2-methoxybenzyl)-6-(1-methylcyclopropoxy)-9H-purin-8-yl)phenoxy)-3-methylbutanoic acid] |  | IC50 ([1]; DLD-1, DLD1 BRCA2 wt, mean, read-out: POLQ PD Prolif Lumin DLD1 mean pIC50 (converted)): > 10000 nM; IC50 ([2]; DLD-1, DLD-1 BRCA2 −/−, mean, read-out: POLQ PD Prolif Lumin BRCA2 −/− mean pIC50 (converted)): 7.94 nM |
|  | C[C@H](CCOc1ccc(-c2nc3c(OC4(C)CC4)ncnc3n2Cc2cccc(Cl)c2)c(Cl)c1)C(=O)O (single isomer, unassigned; isomer 1) [Example 34, 4-(3-Chloro-4-(9-(3-chlorobenzyl)-6-(1-methylcyclopropoxy)-9H-purin-8-yl)phenoxy)-2-methylbutanoic acid (Isomer 1)] |  | IC50 [1, 5]: > 10000 nM; IC50 [2, 6]: 200 nM |
|  | COc1ccc(Cl)cc1Cn1c(-c2cccc(OC[C@@H](C)CC(=O)O)c2Cl)nc2c(OC3(C)CC3)ncnc21 (single isomer, unassigned; isomer 1) [Example 50, 4-(2-Chloro-3-(9-(5-chloro-2-methoxybenzyl)-6-(1-methylcyclopropoxy)-9H-purin-8-yl)phenoxy)-3-methylbutanoic acid (isomer 1)] |  | IC50 [1, 5]: > 10000 nM; IC50 [2, 6]: 6.31 nM |
|  | CC(c1cc(Cl)ccn1)n1c(-c2ccc(OCCN3CCNCC3)cc2Cl)nc2c(OC3(C)CC3)ncnc21 (single isomer, unassigned; isomer 1) [Example S6, 8-(2-chloro-4-(2-(piperazin-1-yl)ethoxy)phenyl)-9-(1-(4-chloropyridin-2-yl)ethyl)-6-(1-methylcyclopropoxy)-9H-purine (Isomer 1)] |  | POLQ PD Prolif Lumin DLD1 mean pIC50 ([1]; DLD-1 BRCA2 wt cells, 7 days): <5.0; POLQ PD Prolif Lumin BRCA2 −/− mean pIC50 ([2]; DLD-1 BRCA2−/− cells, 12 days): 6.5 |
|  | C[C@@H](CCOc1ccc(-c2nc3c(OC4(C)CC4)ncnc3n2Cc2cccc(Cl)c2)c(Cl)c1)C(=O)O (single isomer, unassigned; isomer 2) [Example 35, 4-(3-Chloro-4-(9-(3-chlorobenzyl)-6-(1-methylcyclopropoxy)-9H-purin-8-yl)phenoxy)-2-methylbutanoic acid (Isomer 2)] |  | IC50 [1, 5]: > 10000 nM; IC50 [2, 6]: 126 nM |
|  | COc1ccc(Cl)cc1Cn1c(-c2cccc(OC[C@H](C)CC(=O)O)c2Cl)nc2c(OC3(C)CC3)ncnc21 (single isomer, unassigned; isomer 2) [Example 51, 4-(2-Chloro-3-(9-(5-chloro-2-methoxybenzyl)-6-(1-methylcyclopropoxy)-9H-purin-8-yl)phenoxy)-3-methylbutanoic acid (isomer 2)] |  | IC50 [1, 5]: > 10000 nM; IC50 [2, 6]: 7.94 nM |
| > 10000 nM | CC(c1cc(Cl)ccn1)n1c(-c2ccc(OCCN3CCNCC3)cc2Cl)nc2c(OC3(C)CC3)ncnc21 (single isomer, unassigned; isomer 2) [Example S5, 8-(2-chloro-4-(2-(piperazin-1-yl)ethoxy)phenyl)-9-(1-(4-chloropyridin-2-yl)ethyl)-6-(1-methylcyclopropoxy)-9H-purine (Isomer 2)] |  | POLQ PD Prolif Lumin BRCA2 −/− mean pIC50 ([2]; DLD-1 BRCA2−/− cells, 12 days): 6.1 |
| 6310 nM | Cc1cc(OCCN2CCN(C)CC2)ccc1-c1nc2c(OC(C)C)ncnc2n1Cc1ccccc1 [Example 1, 9-Benzyl-6-isopropoxy-8-(2-methyl-4-(2-(4-methylpiperazin-1-yl)ethoxy)phenyl)-9H-purine] | 631 nM |  |
| 1580 nM | CC(C)Oc1ccc2c(c1)nc(-c1ccc(OCCCN)cc1Cl)n2Cc1ccccc1 [Example 3, 3-(4-(1-Benzyl-5-isopropoxy-1H-benzo[d]imidazol-2-yl)-3-chlorophenoxy)propan-1-amine] | 1000 nM |  |
| 3980 nM | CN1CCN(CCOc2ccc(-c3nc4c(OC5(C)CC5)ncnc4n3Cc3ccccc3)c(Cl)c2)CC1 [Example 4, 9-Benzyl-8-(2-chloro-4-(2-(4-methylpiperazin-1-yl)ethoxy)phenyl)-6-(1-methylcyclopropoxy)-9H-purine] | 63.1 nM |  |
| 3160 nM | CN1CCC(COc2ccc(-c3nc4c(OC5(C)CC5)ncnc4n3Cc3ccccc3)c(Cl)c2)CC1 [Example 5, 9-Benzyl-8-(2-chloro-4-((1-methylpiperidin-4-yl)methoxy)phenyl)-6-(1-methylcyclopropoxy)-9H-purine] | 50.1 nM |  |
| 3980 nM | CC1(Oc2ncnc3c2nc(-c2ccc(OCCN4CCNCC4)cc2Cl)n3Cc2ccccc2)CC1 [Example 6, 9-Benzyl-8-(2-chloro-4-(2-(piperazin-1-yl)ethoxy)phenyl)-6-(1-methylcyclopropoxy)-9H-purine] | 158 nM |  |
| > 10000 nM | Cc1nc(Cn2c(-c3ccc(OCCN4CCN(C)CC4)cc3Cl)nc3c(OC4(C)CC4)ncnc32)cs1 [Example 7, 4-((8-(2-Chloro-4-(2-(4-methylpiperazin-1-yl)ethoxy)phenyl)-6-(1-methylcyclopropoxy)-9H-purin-9-yl)methyl)-2-methylthiazole] | 794 nM |  |
| 3160 nM | CC(C)Oc1ccc2c(n1)nc(-c1ccc(OCCN3CCNCC3)cc1Cl)n2Cc1ccccc1 [Example 8, 1-Benzyl-2-(2-chloro-4-(2-(piperazin-1-yl)ethoxy)phenyl)-5-isopropoxy-1H-imidazo[4,5-b]pyridine] | 1000 nM |  |
| 2510 nM | CC(C)Oc1nccc2c1nc(-c1ccc(OCCN3CCNCC3)cc1Cl)n2Cc1ccccc1 [Example 9, 1-benzyl-2-(2-chloro-4-(2-(piperazin-1-yl)ethoxy)phenyl)-4-isopropoxy-1H-imidazo[4,5-c]pyridine] | 631 nM |  |
| > 10000 nM | CC1(Oc2ncnc3c2nc(-c2ccc(OCCN4CCNCC4)cc2Cl)n3Cc2cc(Cl)ccn2)CC1 [Example 10, 8-(2-Chloro-4-(2-(piperazin-1-yl)ethoxy)phenyl)-9-((4-chloropyridin-2-yl)methyl)-6-(1-methylcyclopropoxy)-9H-purine] | 200 nM |  |
| 794 nM | CC(C)(Oc1ncnc2c1nc(-c1ccc(OCCN3CCNCC3)cc1Cl)n2Cc1ccccc1)C(F)(F)F [Example 11, 9-Benzyl-8-(2-chloro-4-(2-(piperazin-1-yl)ethoxy)phenyl)-6-((1,1,1-trifluoro-2-methylpropan-2-yl)oxy)-9H-purine] | 251 nM |  |
| > 10000 nM | N#CC1(Oc2ncnc3c2nc(-c2ccc(OCCN4CCNCC4)cc2Cl)n3Cc2ccccc2)CC1 [Example 13, 1-((9-Benzyl-8-(2-chloro-4-(2-(piperazin-1-yl)ethoxy)phenyl)-9H-purin-6-yl)oxy)cyclopropane-1-carbonitrile] | 251 nM |  |
| > 10000 nM | CC1(Oc2ccnc3c2nc(-c2ccc(OCCN4CCNCC4)cc2Cl)n3Cc2cc(Cl)ccn2)CC1 [Example 14, 2-(2-Chloro-4-(2-(piperazin-1-yl)ethoxy)phenyl)-3-((4-chloropyridin-2-yl)methyl)-7-(1-methylcyclopropoxy)-3H-imidazo[4,5-b]pyridine] | 251 nM |  |

| Compound | IC50 [1, 7] | IC50 [2, 8] | other results |
| --- | --- | --- | --- |
| CC1(Oc2ncnc3c2nc(-c2ccc(OCCN4CCNCC4)cc2Cl)n3Cc2ccccc2)CCC1 [Example 12, 9-Benzyl-8-(2-chloro-4-(2-(piperazin-1-yl)ethoxy)phenyl)-6-(1-methylcyclobutoxy)-9H-purine] | 2000 nM | 126 nM |  |
